≈ marks a conversion by molar mass, not a printed value.
Tests used:
[1] = Hygroscopicity by dynamic moisture sorption (DVS); type: physicochemical; details: for Moisture adsorption (25° C./80% RH) / Hygroscopicity: DVS
Experimental: Dynamic moisture sorption (DVS): The curves were collected on a DVS Intrinsic of SMS (Surface Measurement Systems). At 25° C., the humidity range was 0% RH-95% RH, the step was 10% (the last step was 5%), and the dm/dt was 0.002%/min.
The hygroscopicity of the free compound of formula (I), mucate salt crystal form A-I, p-toluenesulfonate salt crystal forms A-II and B-III, di-p-toluenesulfonate salt crystal form A-IV and phosphate salt crystal form A-V was evaluated by dynamic moisture sorption instrument (DVS). Starting from 0% relative humidity (0% RH), the test collected the mass change percentage of the samples under constant temperature of 25° C. with humidity changes (0% RH-95% RH-0% RH).

[2] = Equilibrium solubility in water; type: physicochemical; details: H2O, room temperature, 24 hours; listed as p-Toluenesulfonate salt crystal form B-III
Experimental: The sample was centrifuged and filtered, and the filtrate was tested by HPLC.

[3] = Solid-state stability evaluation (XRPD, HPLC); type: physicochemical
Experimental: The following 6 test samples were placed under 25° C./60% RH and 40° C./75% RH conditions for 1 week, and then the physical and chemical stability of the samples was tested by XRPD and HPLC.
At the same time, after the p-toluenesulfonate salt crystal form A-II and crystal form B-III solids were placed at 80° C. for 24 hours, the physical and chemical stability of the samples were tested by XRPD and HPLC.

[4] = tested on: human lung cancer cells EBC-1; assay: Efficacy in nude mouse tumor-bearing model of human lung cancer cells EBC-1; type: in vivo, Balb/c nude mouse
From the text: In this assay, the free compound of formula (I) of the present application and different salts of the compound prepared in Examples 1, 2 and 5 were orally administered to a nude mouse tumor-bearing model of human lung cancer cells EBC-1 to study their effects on tumor growth.
Preparation of test compounds: an appropriate weight of the test compound (including the free form of the compound of formula (I) and different salts of the compound prepared in Examples 1, 2 and 5) was weighed, completely suspended/dissolved in an appropriate volume of 0.1% sodium carboxymethyl cellulose, stirred and vortexed to give a uniform solution or suspension.
Methods: All assays were authorized by the Animal Welfare Committee. EBC-1 in the logarithmic growth phase was inoculated into immune-deficient nude mice (BALB/c nude, female, 6-8 weeks old, weighing 18±2 g), subcutaneously on the right back, with a cell inoculation amount of 5×10^6/mouse. After the tumor grew to 150-200 mm^3, the animals were randomly divided into groups, 6 mice per group. The dose of each test substance was set at 15 mg/kg and 7.5 mg/kg (both based on the concentration of the effective formula (I) compound), and administered once a day for about 3 weeks. The test compounds were freshly prepared each day before use. During the assay, the tumor diameter was measured twice a week, and the mice were weighed at the same time. The calculation formula of tumor volume (TV) is: TV=1/2×a×b^2, where a and b represent length and width, respectively. The relative tumor volume (RTV) was calculated based on the measurement results, and the calculation formula is: RTV=Vt/V0, wherein V0 is the tumor volume measured at the time of cage grouping and dosing initiation (i.e., d0), and Vt is the tumor volume at each measurement. The evaluation index of antitumor activity is the relative tumor proliferation rate T/C (%), calculated as follows: T/C (%)=(TRTV/CRTV)×100%, TRTV: RTV of the treatment group; CRTV: RTV of the negative control group. T and C represent the average tumor volume at a certain time point in the drug administration group and the control group, respectively.

[5] = Dynamic solubility in water, SGF, FaSSIF and FeSSIF; type: physicochemical; details: for solubility at 1 h / solubility at 2 h / solubility at 4 h / solubility at 24 h: 37 °C, thermodynamic from solid
Experimental: Biological solvent Preparation • 1. […] 67.5 μL of concentrated hydrochloric acid (12 M) was added and the mixture was adjusted to a pH value of 1.8 with 1 M hydrochloric acid or 1 M NaOH solution. Purified water was added to make up to volume. • 2. Preparation of Fasted State Simulated Intestinal Fluid (FaSSIF): 0.17 g of anhydrous NaH2PO4, 0.021 g of NaOH, and 0.31 g of NaCl were weighed into a 50-mL volumetric flask. About 48 mL of purified water was added to dissolve the mixture completely, and the solution was adjusted to a pH value of 6.5 with 1 M hydrochloric acid or 1 M NaOH solution. Purified water was added to make up to volume. 0.11 g of SIF powder was added and dissolved completely. • 3. Preparation of Fed State Simulated Intestinal Fluid (FeSSIF): 0.41 mL of glacial acetic acid, 0.20 g of NaOH and 0.59 g of NaCl were weighed into a 50-mL volumetric flask. About 48 mL of purified water was added to dissolve the mixture completely, and the solution was adjusted to a pH value of 5.0 with 1 M hydrochloric acid or 1 M NaOH solution. Purified water was added to make up to volume. 0.56 g of SIF powder was added and dissolved completely.
The dynamic solubility of the free state, the mucate salt crystal form A-I, the p-toluenesulfonate salt crystal form A-II, the di-p-toluenesulfonate salt crystal form A-IV and the phosphate salt crystal form A-V of the compound of formula (I) in water and three biological solvents was evaluated.
The samples at each time point were centrifuged and filtered (0.45 μm PTFE filter head), and the HPLC concentration and pH value of the filtrate were determined.

[6] = 40° C./75% RH, 1 week, listed as p-Toluenesulfonate salt crystal form B-III
[7] = 80° C., 24 hours, listed as p-Toluenesulfonate salt crystal form B-III
[8] = pH 1.8, simulated gastric fluid

In the case of `O=C(Nc1ccc(F)cc1)C1(C(=O)Nc2ccc(Oc3ccnc4cc(OCCCN5CCOCC5)c5c(c34)OCCO5)c(F)c2)CC1` [Example 3, N-(3-fluoro-4-((5-(3-morpholinopropoxy)-2,3-dihydro-[1,4]dioxano[2,3-f]quinolin-10-yl)oxy)phenyl)-N-(4-fluorophenyl)cyclopropane-1,1-dicarboxamide], the “Moisture adsorption (25° C./80% RH)” value ([1]; listed as p-Toluenesulfonate salt crystal form B-III) is reported as 3.13%, the Hygroscopicity ([1]; 25° C., listed as p-Toluenesulfonate salt crystal form B-III) is reported as “Hygroscopic” and the “Solubility (equilibrium)” value [2] is reported as 1300 µg/mL. The Purity ([3]; 25° C./60% RH, 1 week, listed as p-Toluenesulfonate salt crystal form B-III) was 99.68 area %, the Purity [3, 6] was 99.63 area % and the Purity/initial purity [3, 6] was 99.8%. The “Change of Crystal form” value ([3]; 80° C., 24 hours) was “no”, the Purity [3, 7] was 99.56 area % and the Purity/initial purity [3, 7] was 99.8%. For the same compound, the Purity ([3]; Starting, listed as p-Toluenesulfonate salt crystal form B-III) was 99.79 area %.
With `O=C(Nc1ccc(F)cc1)C1(C(=O)Nc2ccc(Oc3ccnc4cc(OCCCN5CCOCC5)c5c(c34)OCCO5)c(F)c2)CC1` [Free state, N-(3-fluoro-4-((5-(3-morpholinopropoxy)-2,3-dihydro-[1,4]dioxano[2,3-f]quinolin-10-yl)oxy)phenyl)-N-(4-fluorophenyl)cyclopropane-1,1-dicarboxamide] the “Whether the crystal form changes after DVS test” value ([1]; 0% RH-95% RH-0% RH, 25° C.) was “no”, the Hygroscopicity ([1]; 25° C.) was “Almost no” and the “Moisture adsorption (25° C./80% RH)” value [1] was 0.11%. The “T/C (relative tumor proliferation rate)” value ([4]; 7.5 mg/kg oral once a day, day 3) was 80.2%, the “T/C (relative tumor proliferation rate)” value ([4]; 7.5 mg/kg oral once a day, day 7) was 68.3% and the “T/C (relative tumor proliferation rate)” value ([4]; 7.5 mg/kg oral once a day, day 10) was 77.9%. The “T/C (relative tumor proliferation rate)” value ([4]; 7.5 mg/kg oral once a day, day 14) was 69.3%, the “T/C (relative tumor proliferation rate)” value ([4]; 7.5 mg/kg oral once a day, day 18) was 81.3% and the “T/C (relative tumor proliferation rate)” value ([4]; 7.5 mg/kg oral once a day, day 21) was 70.68%. For the same compound, the “T/C (relative tumor proliferation rate)” value ([4]; 15 mg/kg oral once a day, day 3) was 88.8%, the “T/C (relative tumor proliferation rate)” value ([4]; 15 mg/kg oral once a day, day 7) was 76.9% and the “T/C (relative tumor proliferation rate)” value ([4]; 15 mg/kg oral once a day, day 10) was 80.4%. For the same compound, the “T/C (relative tumor proliferation rate)” value ([4]; 15 mg/kg oral once a day, day 14) was 66.4%, the “T/C (relative tumor proliferation rate)” value ([4]; 15 mg/kg oral once a day, day 18) was 72.2% and the “T/C (relative tumor proliferation rate)” value ([4]; 15 mg/kg oral once a day, day 21) was 64.60%. The “S (dynamic solubility)” value [5] was “<LOQ”, the solubility at 1 h [5, 8] was 5700 µg/mL (≈ 8630 µM) and the solubility at 2 h [5, 8] was 5800 µg/mL (≈ 8780 µM). The solubility at 4 h [5, 8] was 5700 µg/mL (≈ 8630 µM), the solubility at 24 h [5, 8] was 5700 µg/mL (≈ 8630 µM) and the solubility at 1 h ([5]; pH 5, fessif) was 640 µg/mL (≈ 969 µM). For the same compound, the solubility at 2 h ([5]; pH 5, fessif) was 710 µg/mL (≈ 1070 µM), the solubility at 4 h ([5]; pH 5, fessif) was 710 µg/mL (≈ 1070 µM) and the solubility at 24 h ([5]; pH 5, fessif) was 760 µg/mL (≈ 1150 µM). The solubility at 1 h ([5]; pH 6.5, fassif) was 1.8 µg/mL (≈ 2.72 µM), the solubility at 2 h ([5]; pH 6.5, fassif) was 1.9 µg/mL (≈ 2.88 µM) and the solubility at 4 h ([5]; pH 6.5, fassif) was 2.1 µg/mL (≈ 3.18 µM). The solubility at 24 h ([5]; pH 6.5, fassif) was 2.5 µg/mL (≈ 3.78 µM), the “pH of the filtrate” value ([5]; FaSSIF, 1 hour) was 6.4 and the “pH of the filtrate” value ([5]; FaSSIF, 2 hours) was 6.4. For the same compound, the “pH of the filtrate” value ([5]; FaSSIF, 4 hours) was 6.4, the “pH of the filtrate” value ([5]; FaSSIF, 24 hours) was 6.4 and the “pH of the filtrate” value ([5]; FeSSIF, 1 hour) was 4.9. For the same compound, the “pH of the filtrate” value ([5]; FeSSIF, 2 hours) was 5.0, the “pH of the filtrate” value ([5]; FeSSIF, 4 hours) was 5.0 and the “pH of the filtrate” value ([5]; FeSSIF, 24 hours) was 5.0. The “pH of the filtrate” value ([5]; H2O, 1 hour) was 6.7, the “pH of the filtrate” value ([5]; H2O, 2 hours) was 5.5 and the “pH of the filtrate” value ([5]; H2O, 4 hours) was 6.7. The “pH of the filtrate” value ([5]; H2O, 24 hours) was 7.8, the “pH of the filtrate” value ([5]; SGF, 1 hour) was 3.6 and the “pH of the filtrate” value ([5]; SGF, 2 hours) was 3.7. The “pH of the filtrate” value ([5]; SGF, 4 hours) was 3.7, the “pH of the filtrate” value ([5]; SGF, 24 hours) was 3.8 and the “Change of Crystal form” value ([3]; 25° C./60% RH, 1 week) was “no”. The Purity ([3]; 25° C./60% RH, 1 week) was 99.36 area %, the Purity/initial purity ([3]; 25° C./60% RH, 1 week) was 99.9% and the “Change of Crystal form” value ([3]; 40° C./75% RH, 1 week) was “no”. The Purity ([3]; 40° C./75% RH, 1 week) was 99.39 area %, the Purity/initial purity ([3]; 40° C./75% RH, 1 week) was 99.9% and the “Change of Crystal form” value ([3]; Starting) was “no”. For the same compound, the Purity ([3]; Starting) was 99.44 area %.
